Measurements as given in ChEMBL document CHEMBL1201862, “PubChem BioAssay data set” (2004).
Calls of active or inactive are those of the source. Rule as the data show it, for most assays here: actives have a measured EC50 and inactives only a lower limit.

Experiments:
[1] = test system: Streptococcus sp. 'group A'; assay: Streptococcus pyogenes SK(-)GAS viability under kanamycin – luminescence, BacTiterGlo, confirmation, counter-screen for streptokinase expression inhibitor project, dose response (AID 1900); format: functional, organism-based
Streptococcus = assay: GAS UMAA2166 growth inhibition – luminescence, BacTiterGlo, counter-screen for streptokinase expression inhibitor project, dose response (AID 1915); format: functional, organism-based;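 also: potency for reduction of bacterial viability or growth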
Cytochrome P450 1A2 = target: T1, Cytochrome P450 1A2 (Homo sapiens, UniProt P05177);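 also: PubChem cytochrome P450 panel assay, CYP1A2 panel member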
T1 sequence (P05177 whole entry): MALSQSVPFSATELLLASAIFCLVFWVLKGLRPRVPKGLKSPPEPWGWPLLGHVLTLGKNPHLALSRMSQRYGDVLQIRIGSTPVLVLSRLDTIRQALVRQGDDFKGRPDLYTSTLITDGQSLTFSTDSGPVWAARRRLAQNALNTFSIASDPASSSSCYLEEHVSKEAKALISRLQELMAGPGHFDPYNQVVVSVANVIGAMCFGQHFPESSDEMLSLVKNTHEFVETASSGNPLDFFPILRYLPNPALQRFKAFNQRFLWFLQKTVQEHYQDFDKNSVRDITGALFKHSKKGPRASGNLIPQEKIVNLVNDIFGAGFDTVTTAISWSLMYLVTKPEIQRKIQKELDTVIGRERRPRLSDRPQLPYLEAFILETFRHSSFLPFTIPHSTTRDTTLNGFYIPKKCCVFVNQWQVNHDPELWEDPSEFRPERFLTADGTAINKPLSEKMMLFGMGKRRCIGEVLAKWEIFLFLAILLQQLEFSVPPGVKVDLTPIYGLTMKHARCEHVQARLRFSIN

[2] = Trypanosoma cruzi growth suppression in host cells – NIH3T3 host cells, beta-gal luminescence, confirmation (AID 2044); format: functional, cell-based;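 also: intracellular parasites grown in NIH/3T3 mouse fibroblasts as host cells; luminescent beta-galactosidase reporter signal from transgenic T. cruzi replicating inside host cells; inhibitors lower the luminescence signal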
[3] = NIH3T3 cell viability loss – ATP luminescence, mouse fibroblasts, counter-screen, dose response (AID 2010); format: functional, cell-based;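 also: cells exposed to compound for about 90 hours before reading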
[4] = target: T2, Corticotropin-releasing factor receptor 2/Corticotropin-releasing factor-binding protein (Homo sapiens, UniProt P24387+Q13324); assay: activators of CRF receptor 2 with binding protein – uHTS hits, confirmation (AID 602473); format: functional; details: read-out: EC50_Mean
T2 sequence (Q13324 whole entry): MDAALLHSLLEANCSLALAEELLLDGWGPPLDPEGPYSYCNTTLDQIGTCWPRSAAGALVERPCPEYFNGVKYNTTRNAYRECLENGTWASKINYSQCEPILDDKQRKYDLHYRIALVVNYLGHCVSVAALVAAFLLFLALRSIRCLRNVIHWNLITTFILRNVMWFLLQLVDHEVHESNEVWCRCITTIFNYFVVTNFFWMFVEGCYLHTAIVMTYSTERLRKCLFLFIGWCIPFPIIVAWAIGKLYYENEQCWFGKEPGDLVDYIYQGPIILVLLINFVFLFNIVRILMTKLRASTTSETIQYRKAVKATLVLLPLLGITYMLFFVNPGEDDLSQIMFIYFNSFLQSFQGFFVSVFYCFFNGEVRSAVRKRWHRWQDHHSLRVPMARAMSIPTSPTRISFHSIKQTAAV
T2 sequence (P24387 whole entry): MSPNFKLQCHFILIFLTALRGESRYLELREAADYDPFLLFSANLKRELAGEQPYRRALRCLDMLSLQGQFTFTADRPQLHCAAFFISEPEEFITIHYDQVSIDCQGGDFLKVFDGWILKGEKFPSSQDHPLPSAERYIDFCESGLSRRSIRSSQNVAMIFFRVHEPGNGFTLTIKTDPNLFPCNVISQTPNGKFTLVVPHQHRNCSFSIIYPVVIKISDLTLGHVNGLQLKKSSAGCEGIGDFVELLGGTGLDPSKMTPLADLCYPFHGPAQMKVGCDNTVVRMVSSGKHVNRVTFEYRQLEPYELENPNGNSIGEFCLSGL

Streptokinase A = target: T3, Streptokinase A (Streptococcus pyogenes serotype M1, UniProt P10520); assay: viability-normalized secreted streptokinase activity reduction – plasminogen activation absorbance, OD405, dose response (AID 1914); format: functional, Streptococcus pyogenes M1 GAS;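 also: secreted streptokinase activity via plasminogen activation per viability signal from cell pellet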
T3 sequence (P10520 whole entry): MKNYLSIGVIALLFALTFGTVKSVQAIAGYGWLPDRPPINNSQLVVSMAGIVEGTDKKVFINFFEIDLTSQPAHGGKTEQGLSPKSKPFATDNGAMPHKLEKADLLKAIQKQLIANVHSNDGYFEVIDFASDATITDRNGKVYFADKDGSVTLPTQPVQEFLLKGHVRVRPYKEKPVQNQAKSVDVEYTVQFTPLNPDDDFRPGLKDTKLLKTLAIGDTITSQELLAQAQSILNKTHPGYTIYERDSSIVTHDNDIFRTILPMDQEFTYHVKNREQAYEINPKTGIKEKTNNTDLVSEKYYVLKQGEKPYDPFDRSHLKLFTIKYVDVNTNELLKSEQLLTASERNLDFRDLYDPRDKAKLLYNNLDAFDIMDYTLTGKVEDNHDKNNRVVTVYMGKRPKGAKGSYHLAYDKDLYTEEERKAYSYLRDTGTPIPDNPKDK

SMILES: CCC(N=C(S)NC1CCCCC1)c1ccc(C(C)C)cc1 (stereo not given)
- EC50 [1]: 10.7 µM (active)
- EC50 (Streptococcus): 82 µM (active)

SMILES: CNC(=O)[C@H](C)[C@H]1C[C@]1(C)[C@H](NC(=O)OCc1ccccc1)c1ccccc1
- AC50 (Cytochrome P450 1A2): 20 µM (inconclusive)

SMILES: N#Cc1ccccc1Cn1cc(/C=N/Nc2ccc([N+](=O)[O-])cn2)c2ccccc21
- EC50 [2]: 1.94 µM (active)
- EC50 [3]: > 60 µM (inconclusive)

SMILES: COc1ccccc1C(c1nnnn1Cc1ccco1)N1CCN(c2cccc(C)c2C)CC1 (stereo not given)
- EC50 [2]: 1.84 µM (active)
- EC50 [3]: > 60 µM (not active)

SMILES: O=[N+]([O-])c1cc(-c2n[nH]c(-c3ccccc3)n2)cc([N+](=O)[O-])c1
- EC50 [2]: 0.475 µM (active)
- EC50 [3]: > 60 µM (not active)

SMILES: CCCOc1ccc(CNCCCOCC)cc1OC
- EC50 [2]: 0.344 µM (active)
- EC50 [3]: > 60 µM (inconclusive)

SMILES: CCOC(=O)N1CCN(c2c(O)nc3ccc(Cl)cc3c2-c2ccccc2)CC1
- AC50 (Cytochrome P450 1A2): 0.158 µM (inconclusive)

SMILES: CC1CC(C)CN(C2CCCCC2NS(=O)(=O)c2ccc(Cl)cc2)C1 (stereo not given)
- EC50 [4]: 6.53 µM (active)

SMILES: CC1CCCC(C)N1S(=O)(=O)c1ccc(S(=O)(=O)NCCc2ccncc2)cc1 (stereo not given)
- EC50 [2]: 2.83 µM (active)
- EC50 [3]: > 60 µM (not active)

SMILES: COc1ccccc1C(=O)NC(=S)Nc1ccc(N2CCCC2)cc1
- EC50 [2]: 1.97 µM (active)
- EC50 [3]: > 60 µM (not active)

SMILES: Cc1ccccc1-n1nc(C(=O)c2cccs2)cc(-c2nc3ccccc3[nH]2)c1=N
- EC50 [1]: 2.99 µM (active)
- EC50 (Streptococcus): 3.73 µM (active)

SMILES: O=C(N[C@@H](c1ccccc1)[C@@H]1C[C@H]1C(=O)O)OCc1ccccc1
- AC50 (Cytochrome P450 1A2): 20 µM (inconclusive)

SMILES: CCCCn1c(=N)c(S(=O)(=O)c2ccc(Br)cc2)cc2c(=O)n3cccc(C)c3nc21
- EC50 [4]: > 53 µM (inactive)

SMILES: C=CCn1c(Oc2ccc(C(=O)OC)cc2)nc2c1c(=O)n(C)c(=O)n2C
- EC50 [1]: 12.4 µM (active)
- EC50 (Streptokinase A): > 150 µM (not active)
- EC50 (Streptococcus): > 150 µM (not active)

SMILES: O=C(O)c1ccc(N2C=[N+]3C(=Nc4ccccc43)C2)cc1
- AC50 (Cytochrome P450 1A2): 5.01 µM (inconclusive)

SMILES: CCOc1ccc(NS(=O)(=O)c2cc(NC(=O)c3ccc(C)cc3)ccc2Cl)cc1
- EC50 [1]: 12.5 µM (active)
- EC50 (Streptococcus): 6.62 µM (active)

SMILES: COC(=O)[C@@]12CCCN1[C@H](c1ccc(-c3cccc(Cl)c3)c(OC)c1)[C@H]1C(=O)N(C)C(=O)[C@H]12
- EC50 [1]: 105 µM (active)
- EC50 (Streptokinase A): > 150 µM (not active)
- EC50 (Streptococcus): > 150 µM (not active)

SMILES: Cn1c(Oc2ccccc2NCc2cc(Br)ccc2O)cc(=O)n(C)c1=O
- EC50 [1]: 6.42 µM (active)
- EC50 (Streptokinase A): > 150 µM (not active)
- EC50 (Streptococcus): 16.1 µM (active)

SMILES: COc1ccc(NS(=O)(=O)c2ccc(C(=O)N3CCC(C)CC3)cc2)cc1
- EC50 [4]: 9.87 µM (active)

SMILES: Cc1ccc(C(=O)N2CCOCC2)cc1S(=O)(=O)N1CCOCC1
- EC50 [1]: > 150 µM (not active)
- EC50 (Streptokinase A): > 150 µM (not active)
- EC50 (Streptococcus): > 150 µM (not active)

SMILES: CCc1ccc(CN(Cc2cccnc2)C(=O)/C=C/c2ccc(OC)cc2)cc1
- EC50 [2]: 0.375 µM (active)
- EC50 [3]: > 30 µM (not active)

SMILES: Clc1ccc(C2C3=C(Nc4ncnn42)c2ccccc2CC3)cc1 (stereo not given)
- EC50 [1]: 7.5 µM (active)
- EC50 (Streptokinase A): > 150 µM (not active)
- EC50 (Streptococcus): 43.2 µM (active)

SMILES: CN1CCN(c2ncnc3sc(-c4ccccc4)cc23)CC1
- EC50 [2]: 0.314 µM (active)
- EC50 [3]: > 60 µM (not active)

SMILES: CCOC(=O)N1CCN(CC(O)c2ccc3cc[nH]c3c2)CC1 (stereo not given)
- EC50 [4]: > 53 µM (inactive)

SMILES: O=C1c2cccnc2C(=O)N1Cc1ccc(F)cc1
- AC50 (Cytochrome P450 1A2): 17.8 µM (inconclusive)

SMILES: COc1ccc(/C=C/c2ccncc2)cc1
- EC50 [2]: 0.529 µM (active)
- EC50 [3]: > 60 µM (not active)

SMILES: COc1ccc(C(=O)Nc2c3c(nn2-c2ccc([N+](=O)[O-])cc2)CS(=O)(=O)C3)cc1
- EC50 [1]: 16.1 µM (active)
- EC50 (Streptokinase A): > 150 µM (not active)
- EC50 (Streptococcus): > 150 µM (not active)

SMILES: CN1CCN(c2ncc3nc(-c4cn(C)c5ccccc45)c(=O)n(-c4ccccc4)c3n2)CC1
- AC50 (Cytochrome P450 1A2): 15.8 µM (inconclusive)

SMILES: N#Cc1c(NC(=S)NC(=O)c2ccccc2)sc2c1CCN(CCc1ccccc1)C2
- EC50 [2]: 0.717 µM (active)
- EC50 [3]: > 60 µM (not active)

SMILES: CCOc1cccc2sc(N(CCCN(C)C)C(=O)c3ccc(S(=O)(=O)N(C)c4ccccc4)cc3)nc12
- EC50 [2]: 1.52 µM (active)
- EC50 [3]: > 60 µM (not active)

SMILES: Cc1ccc(NC(S)=NC2CCSc3ccccc32)cc1C (stereo not given)
- EC50 [1]: 20.6 µM (active)
- EC50 (Streptococcus): > 150 µM (not active)

SMILES: Cc1ccc2cc(/C=N/NC(=O)[C@H]3C[C@@H]3c3ccccc3)c(Cl)nc2c1
- EC50 [2]: 2.26 µM (active)
- EC50 [3]: > 60 µM (not active)

SMILES: O=c1[nH]c(=O)c2cc([N+](=O)[O-])cc([N+](=O)[O-])c2[nH]1
- EC50 [2]: 1.04 µM (active)
- EC50 [3]: > 30 µM (not active)

SMILES: COc1ccc(NC(=O)CSc2ccc3nnc(-c4ccccn4)n3n2)c(OC)c1
- EC50 [1]: > 150 µM (not active)
- EC50 (Streptokinase A): > 150 µM (not active)
- EC50 (Streptococcus): > 150 µM (not active)

SMILES: COc1ccccc1CNc1ncnc2ccc(-c3ccccc3CN(C)C)cc12
- AC50 (Cytochrome P450 1A2): 15.8 µM (inconclusive)

SMILES: CCOc1ccc(C)cc1S(=O)(=O)NC1CCCCCC1
- EC50 [1]: > 150 µM (not active)
- EC50 (Streptokinase A): > 150 µM (not active)
- EC50 (Streptococcus): > 150 µM (not active)

SMILES: COC(=O)C1=CN(Cc2ccc(OC)c(OC)c2)C=C(C(=O)OC)C1c1cccs1
- EC50 [2]: 0.707 µM (active)

SMILES: COc1ccc(CN(C(=O)c2ccc(-c3ccccc3)[nH]2)C(C(=O)NC(C)(C)C)c2ccncc2)cc1 (stereo not given)
- EC50 [2]: 0.706 µM (active)
- EC50 [3]: > 60 µM (not active)

SMILES: CCOC(=O)c1ccc(OC(=O)CCCCCNC(=N)N)cc1 [GABEXATE]
- AC50 (Cytochrome P450 1A2): 15.8 µM (inconclusive)

SMILES: COc1cc(CNCCc2ccccc2F)ccc1OCC(=O)N1CCCCC1
- EC50 [2]: 0.393 µM (active)
- EC50 [3]: > 30 µM (not active)

SMILES: Cc1cccc(NC(=O)C(=O)NNC(=O)c2ccc(C(C)(C)C)cc2)c1
- EC50 [1]: 9.34 µM (active)
- EC50 (Streptokinase A): > 150 µM (not active)
- EC50 (Streptococcus): 25.4 µM (active)

SMILES: Cc1c(-n2cc(C(=O)c3cc(F)ccc3O)cc(C#N)c2=O)c(=O)n(-c2ccccc2)n1C
- EC50 [4]: > 53 µM (inactive)

SMILES: Cc1cc(C)nc(N=C(NCCc2c[nH]c3ccccc23)NC(=O)Nc2ccc(Cl)c(Cl)c2)n1
- EC50 [2]: 1.62 µM (active)
- EC50 [3]: > 60 µM (not active)

SMILES: Cc1ccc(NC(=S)NC2CCSc3ccccc32)cc1C (stereo not given)
- EC50 (Streptokinase A): 24.3 µM (active)

SMILES: CC1(C)CC(=O)c2c(n(S(=O)(=O)c3ccccc3)c3ccc(NS(=O)(=O)c4ccccc4)cc23)C1
- EC50 [2]: 1.03 µM (active)
- EC50 [3]: 10.6 µM (active)

SMILES: CN1C(=O)C(=Cc2ccc(N3CCOCC3)o2)C(=O)N(C)C1=S
- EC50 [4]: 7.57 µM (active)
